Among the data in patent US9409907B2, “Inhibitor compounds” (Cancer Research Technology Limited, priority 2012, dated 2016) are IC50 values, retold here.

In this assay the target is full length MPS1 (Homo sapiens (Human), UniProt P33981). Briefly: Measurement of inhibition of MPS1 kinase (Caliper EZ reader mobility-shift enzyme assay). Conditions: full length MPS1 12.5 nM or 3 nM, H236 peptide 5 μM, ATP 10 μM, 60 min at room temperature. The assay is classed as biochemical. On the procedure:
Measurement of Inhibition of MPS1 Kinase
The reaction was carried out for 60 min at room temperature and stopped by the addition of buffer (10 μl) containing 20 mM EDTA, 0.05% (v/v) Brij-35, in 0.1M HEPES-buffered saline (Free acid, Sigma, UK). The plate was read on a Caliper EZ reader II (Caliper Life Sciences).
The % inhibition of the compounds is calculated relative to the means of selected control wells.

Chain of full length MPS1 (P33981 whole entry): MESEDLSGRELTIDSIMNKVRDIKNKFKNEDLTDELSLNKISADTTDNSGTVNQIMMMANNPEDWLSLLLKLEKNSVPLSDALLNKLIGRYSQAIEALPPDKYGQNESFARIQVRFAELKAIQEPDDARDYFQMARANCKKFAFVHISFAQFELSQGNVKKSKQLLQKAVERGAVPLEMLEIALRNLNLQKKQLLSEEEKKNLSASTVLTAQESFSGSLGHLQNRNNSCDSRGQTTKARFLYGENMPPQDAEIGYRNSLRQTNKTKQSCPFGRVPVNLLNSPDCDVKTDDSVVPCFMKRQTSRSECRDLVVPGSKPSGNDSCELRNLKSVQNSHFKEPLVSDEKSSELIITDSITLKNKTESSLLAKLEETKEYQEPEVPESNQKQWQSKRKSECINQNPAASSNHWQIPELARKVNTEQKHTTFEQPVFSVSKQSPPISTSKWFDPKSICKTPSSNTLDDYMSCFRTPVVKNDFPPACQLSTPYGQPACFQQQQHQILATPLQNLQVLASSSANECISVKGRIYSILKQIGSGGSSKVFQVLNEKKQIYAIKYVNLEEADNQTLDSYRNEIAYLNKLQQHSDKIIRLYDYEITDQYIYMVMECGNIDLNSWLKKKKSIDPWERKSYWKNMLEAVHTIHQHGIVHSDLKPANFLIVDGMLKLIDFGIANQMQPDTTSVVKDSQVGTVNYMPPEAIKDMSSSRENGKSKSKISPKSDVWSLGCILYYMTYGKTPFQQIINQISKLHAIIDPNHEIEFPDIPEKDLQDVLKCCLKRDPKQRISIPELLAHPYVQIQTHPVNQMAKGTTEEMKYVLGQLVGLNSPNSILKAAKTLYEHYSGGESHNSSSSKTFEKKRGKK

What is called IC50 is the concentration needed to halve the response being measured. For the compound `COc1cc(-c2cnn(C)c2CO)ccc1Nc1ncc2ccnc(NCC3(C)CCOC3)c2n1` (stereo not shown) [Example 185], the IC50 came out at 1 nM. The result for `COc1cc(-c2cnn(C)c2)ccc1Nc1ncc2ccnc(NCC(C)(C)OC)c2n1` [Example 86, N8-(2-methoxy-2-methylpropyl)-N2-(2-methoxy-4-(1-methyl-1H-pyrazol-4-yl)phenyl)pyrido[3,4-d]pyrimidine-2,8-diamine] reads 5 nM; that for `Cn1cc(-c2cccc3cnc(Nc4ccc(-c5cncn5C)cc4Cl)cc23)cn1` [Example 17, N-(2-chloro-4-(1-methyl-1H-imidazol-5-yl)phenyl)-5-(1-methyl-1H-pyrazol-4-yl)isoquinolin-3-amine], 51 nM. The result for `COc1cc(-c2cnn(C)c2)ccc1Nc1ncc2cc(C)nc(NCC(C)(C)C)c2n1` [Example 51, N^2-(2-methoxy-4-(1-methyl-1H-pyrazol-4-yl)phenyl)-6-methyl-N8-neopentylpyrido[3,4-d]pyrimidine-2,8-diamine] reads 29 nM.

Take `COc1cc(-c2cnn(C)c2)ccc1Nc1ncc2ccnc(NCC3CCO3)c2n1` (stereo not shown) [Example 116, N^2-(2-methoxy-4-(1-methyl-1H-pyrazol-4-yl)phenyl)-N8-(oxetan-2-ylmethyl)pyrido[3,4-d]pyrimidine-2,8-diamine]: the IC50 amounted to 8 nM.

For `COc1cc(C(=O)N2CC(OC)C2)ccc1Nc1cc2c(-c3cn(C)nc3C)cccc2cn1` [Example 8, (4-((5-(1,3-dimethyl-1H-pyrazol-4-yl)isoquinolin-3-yl)amino)-3-methoxyphenyl)(3-methoxyazetidin-1-yl)methanone], the IC50 is 27 nM.

Regarding `CCOc1cc(-c2nncn2C)ccc1Nc1ncc2ccnc(NCC3(C)CCOC3)c2n1` (stereo not shown) [Example 189], the IC50 stood at 1 nM. The same measure for `COc1cc(-c2nncn2C)ccc1Nc1ncc2c(C)cnc(NCC(C)(C)OC)c2n1` [Example 150, N^8-(2-methoxy-2-methylpropyl)-N^2-(2-methoxy-4-(4-methyl-4H-1,2,4-triazol-3-yl)phenyl)-5-methylpyrido[3,4-d]pyrimidine-2,8-diamine]: 3 nM. The result for `COc1cc(-c2cnn(C)c2)ccc1Nc1ncc2ccnc(N3CCC(CO)C3)c2n1` (stereo not shown) [Example 133, (1-(2-(2-Methoxy-4-(1-methyl-1H-pyrazol-4-yl)phenylamino)pyrido[3,4-d]pyrimidin-8-yl)pyrrolidin-3-yl)methanol] reads 3 nM; that for `COc1cc(-c2cnn(C)c2)ccc1Nc1ncc2ccnc(NCC3(O)CCC3)c2n1` [Example 89, 1-((2-(2-methoxy-4-(1-methyl-1H-pyrazol-4-yl)phenylamino)pyrido[3,4-d]pyrimidin-8-ylamino)methyl)cyclobutanol], 7 nM. As to `CCc1cc(-c2cnn(C)c2)ccc1Nc1ncc2ccnc(NCC(C)(C)C)c2n1` [Example 168, N2-(2-ethyl-4-(1-methyl-1H-pyrazol-4-yl)phenyl)-N8-neopentylpyrido[3,4-d]pyrimidine-2,8-diamine], the IC50 stood at 27 nM. The result for `COc1cc(-c2cnn(C)c2)ccc1Nc1ncc2ccnc(NCC3CCOC3)c2n1` (stereo not shown) [Example 79, N2-(2-methoxy-4-(1-methyl-1H-pyrazol-4-yl)phenyl)-N8-((tetrahydrofuran-3-yl)methyl)pyrido[3,4-d]pyrimidine-2,8-diamine] reads 5 nM; that for `CN(C)C(=O)c1ccc(Nc2cc3c(-c4cnn(C)c4)cccc3cn2)c(Cl)c1` [Example 26], 78 nM. In the case of `COc1cc(-c2cnn(CCO)c2)ccc1Nc1ncc2ccnc(NC3CCCCC3)c2n1` [Example 43, 2-(4-(4-((8-(cyclohexylamino)pyrido[3,4-d]pyrimidin-2-yl)amino)-3-methoxyphenyl)-1H-pyrazol-1-yl)ethanol], the IC50 was 14 nM.

Turning to `COc1cc(-c2cnn(C)c2)ccc1Nc1ncc2ccnc(N3CCN(S(C)(=O)=O)CC3)c2n1` [Example 139, N-(2-Methoxy-4-(1-methyl-1H-pyrazol-4-yl)phenyl)-8-(4-(methylsulfonyl)piperazin-1-yl)pyrido[3,4-d]pyrimidin-2-amine], the IC50 is 6 nM. The same measure for `COc1cc(-c2cnn(C)c2CO)ccc1Nc1ncc2cc(C)nc(NCC(C)(C)OC)c2n1` [Example 198]: 9 nM; for `COc1cc(OC2CCN(C)CC2)ccc1Nc1cc2c(-c3cnn(C)c3)cccc2cn1` [Example 29, N-(2-Methoxy-4-((1-methylpiperidin-4-yl)oxy)phenyl)-5-(1-methyl-1H-pyrazol-4-yl)isoquinolin-3-amine]: 17 nM.

Regarding `COc1cc(-c2cnn(C)c2)ccc1Nc1ncc2ccnc(NC3CCOCC3)c2n1` [Example 69, N2-(2-methoxy-4-(1-methyl-1H-pyrazol-4-yl)phenyl)-N8-(tetrahydro-2H-pyran-4-yl)pyrido[3,4-d]pyrimidine-2,8-diamine], the IC50 came to 3 nM. The same measure for `COc1cc(-c2cnc(C)n2C)ccc1Nc1ncc2ccnc(NCC(C)(C)C)c2n1` [Example 50, N2-(4-(1,2-dimethyl-1H-imidazol-5-yl)-2-methoxyphenyl)-N8-neopentylpyrido[3,4-d]pyrimidine-2,8-diamine]: 7 nM; for `COc1cc(-c2cnn(C)c2)ccc1Nc1ncc2ccnc(N3CCC(O)C3)c2n1` (stereo not shown) [Example 80, 1-(2-(2-methoxy-4-(1-methyl-1H-pyrazol-4-yl)phenylamino)pyrido[3,4-d]pyrimidin-8-yl)pyrrolidin-3-ol]: 6 nM; for `COc1cc(-c2cnn(C)c2)ccc1Nc1ncc2ccnc(C3=CCOCC3)c2n1` [Example 144, 8-(3,6-Dihydro-2H-pyran-4-yl)-N-(2-methoxy-4-(1-methyl-1H-pyrazol-4-yl)phenyl)pyrido[3,4-d]pyrimidin-2-amine]: 5 nM. The result for `COc1cc(-c2cnn(C)c2)ccc1Nc1ncc2ccnc(N3CC(OC)C3)c2n1` [Example 67, N-(2-methoxy-4-(1-methyl-1H-pyrazol-4-yl)phenyl)-8-(3-methoxyazetidin-1-yl)pyrido[3,4-d]pyrimidin-2-amine] reads 10 nM. With `COc1cc(-c2cn(C)nc2C)ccc1Nc1ncc2cc(C)nc(NCC(C)(C)OC)c2n1` [Example 192], the IC50 came to 5 nM.

For `Cc1nnc(-c2ccc(Nc3ncc4ccnc(N5CCC6(COC6)C5)c4n3)c(Cl)c2)o1` [Example 201], the IC50 came to 40 nM. The result for `COc1cc(-c2cnn(C)c2)ccc1Nc1ncc2ccnc(NC3CCN(C)CC3)c2n1` [Example 113, N^2-(2-methoxy-4-(1-methyl-1H-pyrazol-4-yl)phenyl)-N^8-(1-methylpiperidin-4-yl)pyrido[3,4-d]pyrimidine-2,8-diamine] reads 9 nM; that for `COc1cc(-c2cnn(C)c2C)ccc1Nc1ncc2ccnc(NCC3(C)CCOC3)c2n1` (stereo not shown) [Example 148, N^2-(4-(1,5-dimethyl-1H-pyrazol-4-yl)-2-methoxyphenyl)-N^8-((3-methyltetrahydrofuran-3-yl)methyl)pyrido[3,4-d]pyrimidine-2,8-diamine], 3 nM.

`COc1nc(-c2cnn(C)c2C)ccc1Nc1ncc2ccnc(NCC(C)(C)OC)c2n1` [Example 165, N^2-(6-(1,5-dimethyl-1H-pyrazol-4-yl)-2-methoxypyridin-3-yl)-N^8-(2-methoxy-2-methylpropyl)pyrido[3,4-d]pyrimidine-2,8-diamine]: the IC50 stood at 3 nM. The same measure for `COc1cc(-c2nncn2C)ccc1Nc1ncc2ccnc(NCC(C)(C)C)c2n1` [Example 175, N2-(2-methoxy-4-(4-methyl-4H-1,2,4-triazol-3-yl)phenyl)-N8-neopentylpyrido[3,4-d]pyrimidine-2,8-diamine]: 2 nM; for `COc1cc(-c2cnn(C)c2)ccc1Nc1ncc2ccnc(N3CC4(COC4)C3)c2n1` [Example 115, N-(2-methoxy-4-(1-methyl-1H-pyrazol-4-yl)phenyl)-8-(2-oxa-6-azaspiro[3.3]heptan-6-yl)pyrido[3,4-d]pyrimidin-2-amine]: 3 nM. The result for `COc1cc(-c2nncn2C)ccc1Nc1ncc2cc(C)nc(NCC(C)(C)OC)c2n1` [Example 180] reads 3 nM; that for `COc1cc(C(=O)N2CC(OC)C2)ccc1Nc1cc2c(-c3c(C)noc3C)cccc2cn1` [Example 5, (4-((5-(3,5-dimethylisoxazol-4-yl)isoquinolin-3-yl)amino)-3-methoxyphenyl)(3-methoxyazetidin-1-yl)methanone], 261 nM; that for `COc1cc(-c2cnn(C)c2)ccc1Nc1ncc2ccnc(NCC(C)(C)O)c2n1` [Example 71, 1-((2-((2-methoxy-4-(1-methyl-1H-pyrazol-4-yl)phenyl)amino)pyrido[3,4-d]pyrimidin-8-yl)amino)-2-methylpropan-2-ol], 6 nM.

`CCOc1cc(-c2nncn2C)ccc1Nc1ncc2cc(C)nc(N3CC4(CCOC4)C3)c2n1` [Example 160, N-(2-ethoxy-4-(4-methyl-4H-1,2,4-triazol-3-yl)phenyl)-6-methyl-8-(6-oxa-2-azaspiro[3.4]octan-2-yl)pyrido[3,4-d]pyrimidin-2-amine]: the IC50 stood at 3 nM.

Regarding `COc1cc(-c2cnn(C)c2C)ccc1Nc1ncc2ccnc(NCC(C)(C)OC)c2n1` [Example 147, N^2-(4-(1,5-dimethyl-1H-pyrazol-4-yl)-2-methoxyphenyl)-N^8-(2-methoxy-2-methylpropyl)pyrido[3,4-d]pyrimidine-2,8-diamine], the IC50 is 2 nM. The result for `CC(C)(C)CNc1nccc2cnc(Nc3ccc(N4CCOCC4)cc3Cl)nc12` [Example 174, N2-(2-chloro-4-morpholinophenyl)-N8-neopentylpyrido[3,4-d]pyrimidine-2,8-diamine] reads 10 nM. The result for `COc1cc(-c2cnn(C)c2)ccc1Nc1ncc2ccnc(NC(C)(C)CO)c2n1` [Example 114] reads 17 nM; that for `Clc1cc(-c2cncnc2)ccc1Nc1ncc2ccnc(N3CCC4(COC4)C3)c2n1` [Example 200], 6 nM.
